Here are results for 24 molecules from patent US20230104936A1, “TRPML MODULATORS” (Casma Therapeutics, Inc., priority 2019, published 2023).

SMILES strings stand for the structures. A value given as a limit tells only on which side of the number the result lay.

For the first assay, the system named is TFEB. Put plainly: TFEB nuclear translocation assay, HeLa wt cells. The class given is cell-based. As to conditions: 2 hrs compound treatment, Table 1 does not say HeLa wt or TRPML1 KO. An outline of the steps: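 Cells are plated overnight, exposed to compounds for 2 hrs at 37° C, fixed with 4% PFA, blocked, and stained overnight at 4° C with rabbit anti-TFEB. After Alexa 488 secondary and Hoechst, nuclei and a perinuclear ring are segmented to give a nuclear:ring intensity ratio and AC50.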
Take `CC(c1cccc(F)c1N1CCCCC1)S(=O)(=O)c1ccc(S2(=O)=NCCC2)cc1` (single isomer, unassigned) [Compound A-981, 1-(4-((1-(3-fluoro-2-(piperidin-1-yl)phenyl)ethyl)sulfonyl)phenyl)-4,5-dihydro-3H-isothiazole 1-oxide]: the concentration at half-maximal activity (AC50) – broadly, the concentration at which the activity in the assay is half-maximal – is at least 10 µM.

The assay is the same for the next values; noted with them: Homo sapiens, HeLa, 2 h, 2 hrs compound treatment, Table 1 does not say HeLa wt or TRPML1 KO.
On to `CN(C)C(c1ccc(S(=O)(=O)Nc2ccccc2N2CCC(c3ccc(Cl)cc3F)CC2)cc1)C(F)(F)F` (stereo not drawn) [Compound A-222, N-{2-[4-(4-chloro-2-fluorophenyl)piperidin-1-yl]phenyl}-4-[1-(dimethylamino)-2,2,2-trifluoroethyl]benzene-1-sulfonamide], for which the half-maximal activity concentration (AC50) is at most 2 µM. Still for that read-out and setting: under `CC1(C)CC2(CCN(c3ccccc3NS(=O)(=O)c3ccc(S(C)(=O)=O)cc3)CC2)CO1` [Compound A-693, N-(2-{3,3-dimethyl-2-oxa-8-azaspiro[4.5]decan-8-yl}phenyl)-4-methanesulfonylbenzene-1-sulfonamide] stands 2.01 to 8 µM; under `CN(C)S(=O)(=O)c1ccc(S(=O)(=O)Nc2cccc(F)c2N2CCC(N3CCC4(CCOC4)C3)CC2)cc1` (stereo not drawn) [Compound A-874, N4-[3-fluoro-2-(4-{2-oxa-7-azaspiro[4.4]nonan-7-yl}piperidin-1-yl)phenyl]-N1,N1-dimethylbenzene-1,4-disulfonamide], 2.01 to 8 µM; under `O=C1COCCN1c1ccc(Cl)cc1NS(=O)(=O)c1ccc2c(c1)CCC2` [Compound A-326, N-[5-chloro-2-(3-oxomorpholin-4-yl)phenyl]-2,3-dihydro-1H-indene-5-sulfonamide], at least 10 µM. Same read-out and setting: under `CC(=O)N(C)C1(c2ccc(Cl)cc2F)CCN(c2ccccc2NS(=O)(=O)c2ccc(S(=O)(=O)N(C)C)cc2)CC1` [Compound A-172, N-[4-(4-chloro-2-fluorophenyl)-1-{2-[4-(dimethylsulfamoyl)benzenesulfonamido]phenyl}piperidin-4-yl]-N-methylacetamide] stands 2.01 to 8 µM.

`CN(C)S(=O)(=O)c1ccc(S(=O)(=O)Nc2ccccc2N2CCN(C34CC(C3)C4)CC2)cc1` [Compound A-179, N4-[2-(4-{bicyclo[1.1.1]pentan-1-yl}piperazin-1-yl)phenyl]-N1,N1-dimethylbenzene-1,4-disulfonamide] yielded an AC50 of at most 2 µM. The same measure, in the same setting: under `CP(C)(=O)c1ccc(S(=O)(=O)Nc2ccccc2N2CCN(c3ccc(F)cc3F)CC2)cc1` [Compound A-165, N-{2-[4-(2,4-difluorophenyl)piperazin-1-yl]phenyl}-4-(dimethylphosphoryl)benzene-1-sulfonamide] stands 2.01 to 8 µM; under `CS(=O)(=O)c1ccc(S(=O)(=O)Nc2ccccc2N2CCC3(CC2)CN(CC2CCOC2)c2cc(F)ccc23)cc1` (stereo not drawn) [Compound A-423, N-(2-{6-fluoro-1-[(oxolan-3-yl)methyl]-1,2-dihydrospiro[indole-3,4′-piperidin]-1′-yl}phenyl)-4-methanesulfonylbenzene-1-sulfonamide], at most 2 µM. Still for that read-out and setting: to `CN(C)S(=O)(=O)c1ccc(S(=O)(=O)Nc2ccccc2N2CCN(C(=O)C3(F)CC3)CC2)cc1` [Compound A-461, N4-{2-[4-(1-fluorocyclopropanecarbonyl)piperazin-1-yl]phenyl}-N1,N1-dimethylbenzene-1,4-disulfonamide] belongs 2.01 to 8 µM; to `CC(c1ccccc1N1CCN(C(=O)OCc2ccccc2)CC1)S(=O)(=O)c1ccc(S(=O)(=O)N(C)C)cc1` (stereo not drawn) [Compound A-556, benzyl 4-(2-{1-[4-(dimethylsulfamoyl)benzenesulfonyl]ethyl}phenyl)piperazine-1-carboxylate], at most 2 µM; to `CN(C)S(=O)(=O)c1ccc(S(=O)(=O)Nc2ccccc2N2CCC(F)(CCO)CC2)cc1` [Compound A-722, N4-{2-[4-fluoro-4-(2-hydroxyethyl)piperidin-1-yl]phenyl}-N1,N1-dimethylbenzene-1,4-disulfonamide], at least 10 µM. Still for that read-out and setting: under `O=C1COCCN1c1c(Cl)cccc1NS(=O)(=O)c1ccc2c(c1)CCC2` [Compound A-297, N-[3-chloro-2-(3-oxomorpholin-4-yl)phenyl]-2,3-dihydro-1H-indene-5-sulfonamide] stands at least 10 µM; under `COc1ccc(S(=O)(=O)Nc2cnncc2N2CCC(c3ncc(F)cc3F)CC2)cc1` [Compound A-206, N-{5-[4-(3,5-difluoropyridin-2-yl)piperidin-1-yl]pyridazin-4-yl}-4-methoxybenzene-1-sulfonamide], at least 10 µM. For `C[C@@H](c1cccc(F)c1N1CCC(C(F)(F)F)CC1)S(=O)(=O)c1ccc(S(=N)(=O)N(C)C)cc1` (single isomer, unassigned) [Compound A-932], the AC50 was at most 2 µM. The same measure, in the same setting: under `Cc1nc(N2CCN(c3ccc(Cl)cc3F)CC2=O)cn1S(=O)(=O)c1ccc(S(=O)(=O)N(C)C)cc1` [Compound A-89, 4-((4-(4-(4-chloro-2-fluorophenyl)-2-oxopiperazin-1-yl)-2-methyl-1H-imidazol-1-yl)sulfonyl)-N,N-dimethylbenzenesulfonamide] stands at most 2 µM; under `CN(C)S(=O)(=O)c1ccc(S(=O)(=O)Nc2ccccc2N2CCC(C)(C3(O)CC3)CC2)cc1` [Compound A-558, N1-(2-(4-(1-hydroxycyclopropyl)-4-methylpiperidin-1-yl)phenyl)-N4,N4-dimethylbenzene-1,4-disulfonamide], 2.01 to 8 µM. Still for that read-out and setting: to `O=S(=O)(CC1CCC2(CCCC2)O1)Nc1cccc(Cl)c1N1CCOCC1` (stereo not drawn) [Compound A-393, N-[3-chloro-2-(morpholin-4-yl)phenyl]-1-{1-oxaspiro[4.4]nonan-2-yl}methanesulfonamide] belongs 8.01 to 9.99 µM; to `COCC1(C)CCN(c2ccccc2NS(=O)(=O)c2ccc3c(c2)C(C)(C)OC3)CC1` [Compound A-683, N-{2-[4-(methoxymethyl)-4-methylpiperidin-1-yl]phenyl}-3,3-dimethyl-1,3-dihydro-2-benzofuran-5-sulfonamide], 2.01 to 8 µM; to `CN(C)S(=O)(=O)c1ccc(S(=O)(=O)Nc2ccccc2N2CCC(COC(C)(C)C)CC2)cc1` [Compound A-494, N4-(2-{4-[(tert-butoxy)methyl]piperidin-1-yl}phenyl)-N1,N1-dimethylbenzene-1,4-disulfonamide], at most 2 µM.

As for `Cc1ccc(S(=O)(=O)Nc2ccccc2N2CC=C(c3ccc(Cl)cn3)CC2)cc1` [Compound A-88, N-(2-{5-chloro-1′,2′,3′,6′-tetrahydro-[2,4′-bipyridin]-1′-yl}phenyl)-4-methylbenzene-1-sulfonamide], the AC50 was in the range of 2.01 to 8 µM. Same read-out and setting: under `COCC1(C)CCN(c2ccccc2C(C)S(=O)(=O)c2ccc(S(=O)(=O)N(C)C)cc2)CC1` (stereo not drawn) [Compound A-491, 4-(1-{2-[4-(methoxymethyl)-4-methylpiperidin-1-yl]phenyl}ethanesulfonyl)-N,N-dimethylbenzene-1-sulfonamide] stands at most 2 µM; under `COCC1(C)CCN(c2ccccc2NS(=O)(=O)Cc2ccccc2C)CC1` [Compound A-592, N-{2-[4-(methoxymethyl)-4-methylpiperidin-1-yl]phenyl}-1-(2-methylphenyl)methanesulfonamide], 8.01 to 9.99 µM; under `COCC1(C)CCN(c2ccccc2NS(=O)(=O)C2=Cc3ccccc3OCC2)CC1` [Compound A-624, N-{2-[4-(methoxymethyl)-4-methylpiperidin-1-yl]phenyl}-2,3-dihydro-1-benzoxepine-4-sulfonamide], 2.01 to 8 µM.
